This test deals with cAMP and cAMP-inhibited cGMP 3',5'-cyclic phosphodiesterase 10A (Homo sapiens, UniProt Q9Y233). Put plainly: Fluorescence Polarization Assay: The activity of the compounds in accordance with the present invention as PDE10 inhibitors may be readily determined without undue experimentation using a fluorescence polarization (FP) methodology that is well known in the art (Huang, W., et al., J. Biomol Screen, 2002, 7: 215). […] In a typical experiment the PDE10 inhibitory activity of the compounds of the present invention was determined in accordance with the following experimental method. PDE10A2 was amplified from human fetal brain cDNA (Clontech, Mountain View, Calif.) using a forward primer corresponding to nucleotides 56-77 of human PDE10A2 (Accession No. AF127480, Genbank Identifier 4894716), containing a Kozak consensus sequence, and a reverse primer corresponding to nucleotides 2406-2413 of human PDE10A2.
Sequence of cAMP and cAMP-inhibited cGMP 3',5'-cyclic phosphodiesterase 10A (Q9Y233 whole entry): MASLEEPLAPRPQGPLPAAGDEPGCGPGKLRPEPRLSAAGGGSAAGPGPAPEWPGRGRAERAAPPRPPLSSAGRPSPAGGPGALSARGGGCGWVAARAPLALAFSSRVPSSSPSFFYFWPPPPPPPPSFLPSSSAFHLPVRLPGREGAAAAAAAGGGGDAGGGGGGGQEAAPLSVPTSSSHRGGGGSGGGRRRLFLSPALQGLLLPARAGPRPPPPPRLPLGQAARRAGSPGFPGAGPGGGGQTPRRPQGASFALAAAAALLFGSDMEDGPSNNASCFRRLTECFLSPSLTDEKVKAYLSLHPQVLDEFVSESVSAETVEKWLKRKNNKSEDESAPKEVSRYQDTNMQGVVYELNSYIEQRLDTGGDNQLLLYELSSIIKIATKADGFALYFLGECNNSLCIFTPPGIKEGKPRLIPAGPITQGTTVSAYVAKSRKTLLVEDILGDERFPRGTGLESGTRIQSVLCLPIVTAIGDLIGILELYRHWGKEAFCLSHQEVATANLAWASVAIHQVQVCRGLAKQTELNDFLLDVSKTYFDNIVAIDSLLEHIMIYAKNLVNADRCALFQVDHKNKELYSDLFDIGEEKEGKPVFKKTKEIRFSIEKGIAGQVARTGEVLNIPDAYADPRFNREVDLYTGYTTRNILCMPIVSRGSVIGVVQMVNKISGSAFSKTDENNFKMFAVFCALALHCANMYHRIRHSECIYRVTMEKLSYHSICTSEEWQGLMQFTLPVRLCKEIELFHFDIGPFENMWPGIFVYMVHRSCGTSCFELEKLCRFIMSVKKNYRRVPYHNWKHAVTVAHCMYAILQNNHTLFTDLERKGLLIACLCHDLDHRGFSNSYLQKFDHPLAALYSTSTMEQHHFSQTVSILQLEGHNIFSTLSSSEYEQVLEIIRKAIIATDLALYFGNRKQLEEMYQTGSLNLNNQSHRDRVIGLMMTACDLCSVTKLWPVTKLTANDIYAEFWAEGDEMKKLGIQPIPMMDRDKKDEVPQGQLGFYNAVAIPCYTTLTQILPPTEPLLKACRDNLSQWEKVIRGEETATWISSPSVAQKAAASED

The compound `Cc1c(Cl)nc(OC[C@@H]2C[C@H]2c2ccc3ncccc3n2)nc1NCc1cnn(C)c1` showed a Ki of 0.019 nM.
In turn, `Cc1nc(C)c(CNc2nc(OC[C@@H]3C[C@H]3c3ccc4ccccc4n3)nc(Cl)c2C)s1` gave a Ki of 0.0006 nM.
`COc1nc(OC[C@H]2C[C@@H]2c2ccc3ncccc3n2)nc(NCc2cnn(C)c2)c1C` had a Ki of 0.17 nM.

The values are drawn from ChEMBL document CHEMBL3638675, “Alkoxy pyrimidine PDE10 inhibitors” (2014).
